Earlier results in patent US20080292726A1, “[…] COMPOSITIONS AND METHODS OF THEIR USE” (priority 2007, published 2008).

System: mouse model of uveitis
Conditions: systemically administered, subcutaneously injected into the neck

O=[N+]([O-])[O-].O=[N+]([O-])[O-].O=[N+]([O-])[O-].[Ga+3] [gallium nitrate]
efficacy in a mouse model of uveitis: effective
